# Laboratory results from patent US12268685B2, “Dosing regimen for injectable cetirizine” (JDP THERAPEUTICS LLC, priority 2019, dated 2025).
# “Also recorded” adds a separate entry of the source. Structures can show the parent of a compound that is named as a salt. Where two headings read alike, the source gives them in different places.
# How the values were obtained:
# [1] = system: subjects with acute urticaria; details: for Developed other symptoms: No / Developed other symptoms: Yes / Needed additional medication: No / Needed additional medication: Yes / Needed medication prescribed at discharge: No / Needed medication prescribed at discharge: No medication prescribed / Needed medication prescribed at discharge: Yes / Recurrence of allergic symptoms: No / Recurrence of allergic symptoms: Yes / Returned to normal activity: No / Returned to normal activity: Yes: ITT; for Patient-rated pruritus severity score, 2 Hour Change from Baseline, mean (primary efficacy measure): LOCF; for Patient-rated pruritus severity score, 2 Hour Change from Baseline, mean (primary efficacy measure) / Time spent at the treatment center, Mean (SD): acetic acid, dihydrochloride
# Sprague-Dawley rats [2] = details: Phase IV
# Sprague-Dawley rats [3] = details: rat, in vivo
# Sprague-Dawley rats [4] = system: Sprague-Dawley rats
# Procedure: The study was conducted in four phases (Phase I, II/IIB, III and IV/IVB) via various methods of intravenous injection to rats. The intravenous route is the route of administration for the final finished product in human subjects. […] Phase III was conducted to evaluate repeat dosing using a Sponsor prepared human clinical formulation.
# Phase I (Dose escalation): The test item dose formulation was administered in an escalating dose fashion by slow intravenous injection (over approximately 2 minutes) into the tail vein using a hypodermic needle attached to a syringe. A minimum 24-hour observation period was allowed between successive doses. The dose volume was 5 mL/kg for all animals. […] The protocol is described in Table 2.
# Sprague-Dawley rats were used for all of the experiments.
# [5] = injection; cited from earlier work
# [6] = system: adult and pediatric patients; details: cited from earlier work
# [7] = 24 hrs after discharge, count (percentage)
# [8] = 48 hrs after discharge, count (percentage)
# [9] = ITT Population, listed as Cetirizine Injection
# [10] = ITT Population, before treatment
# [11] = ITT Population, count (percentage)
# [12] = Sprague-Dawley, 30 mg/kg/day, 7 days
smiles,measurement,setting,value
"O=C(O)COCCN1CCN(C(c2ccccc2)c2ccc(Cl)cc2)CC1 (racemic) [cetirizine dihydrochloride, (±)-[2-[4-[(4-chlorophenyl)phenylmethyl]-1-piperazinyl]ethoxy] acetic acid, dihydrochloride]",Developed other symptoms: No,[1]; [7],108 (85.04)
same,Developed other symptoms: Yes,[1]; [7],12 (9.45)
same,Needed additional medication: No,[1]; [7],94 (74.02)
same,Needed additional medication: Yes,[1]; [7],26 (20.47)
same,Needed medication prescribed at discharge: No,[1]; [7],41 (32.28)
same,Needed medication prescribed at discharge: No medication prescribed,[1]; [7],10 (7.87)
same,Needed medication prescribed at discharge: Yes,[1]; [7],69 (54.33)
same,Recurrence of allergic symptoms: No,[1]; [7],66 (51.97)
same,Recurrence of allergic symptoms: Yes,[1]; [7],54 (42.52)
same,Returned to normal activity: No,[1]; [7],17 (13.39)
same,Returned to normal activity: Yes,[1]; [7],103 (81.10)
same,Developed other symptoms: No,[1]; [8],111 (87.40)
same,Developed other symptoms: Yes,[1]; [8],10 (7.87)
same,Needed additional medication: No,[1]; [8],102 (80.31)
same,Needed additional medication: Yes,[1]; [8],19 (14.96)
same,Needed medication prescribed at discharge: No,[1]; [8],46 (36.22)
same,Needed medication prescribed at discharge: No medication prescribed,[1]; [8],11 (8.66)
same,Needed medication prescribed at discharge: Yes,[1]; [8],64 (50.39)
same,Recurrence of allergic symptoms: No,[1]; [8],85 (66.93)
same,Recurrence of allergic symptoms: Yes,[1]; [8],36 (28.35)
same,Returned to normal activity: No,[1]; [8],9 (7.09)
same,Returned to normal activity: Yes,[1]; [8],112 (88.19)
same,Course of subject-rated sedation scores after treatment,[1]; ITT Population,returning to baseline sedation by 2 hrs
same,"Patient-rated pruritus severity score, 1 Hour Assessment, mean",[1]; ITT Population,0.81
same,"Patient-rated pruritus severity score, 1 Hour Change from Baseline, mean",[1]; ITT Population,−1.39
same,"Patient-rated pruritus severity score, 2 Hour Assessment, mean",[1]; ITT Population,0.60
same,"Patient-rated pruritus severity score, Discharge Assessment, mean",[1]; ITT Population,0.58
same,"Patient-rated pruritus severity score, Discharge Change from Baseline, mean",[1]; ITT Population,−1.62
same,"Physician-rated urticaria/erythema score, 1 Hour Assessment, mean",[1]; ITT Population,1.27
same,"Physician-rated urticaria/erythema score, 1 Hour Change from Baseline, mean",[1]; ITT Population,−0.54
same,"Physician-rated urticaria/erythema score, 2 Hour Assessment, mean",[1]; ITT Population,1.19
same,"Physician-rated urticaria/erythema score, 2 Hour Change from Baseline, mean",[1]; ITT Population,−0.63
same,"Physician-rated urticaria/erythema score, Discharge Assessment, mean",[1]; ITT Population,1.17
same,"Physician-rated urticaria/erythema score, Discharge Change from Baseline, mean",[1]; ITT Population,−0.65
same,"Subject-rated sedation score, 1 Hour Assessment, mean",[1]; ITT Population,0.62
same,"Subject-rated sedation score, 1 Hour Change from Baseline, mean",[1]; ITT Population,0.24
same,"Subject-rated sedation score, 2 Hour Assessment, mean",[1]; ITT Population,0.46
same,"Subject-rated sedation score, 2 Hour Change from Baseline, mean",[1]; ITT Population,0.08
same,"Subject-rated sedation score, Discharge Assessment, mean",[1]; ITT Population,0.46
same,"Subject-rated sedation score, Discharge Change from Baseline, mean",[1]; ITT Population,0.08
same,"Time spent at the treatment center, Median",[1]; ITT Population,1.42 h
same,Time spent at the treatment center shorter than with diphenhydramine injection,[1]; ITT Population analysis,22 min
same,"Patient-rated pruritus severity score, 2 Hour Change from Baseline, mean (primary efficacy measure)",[1]; ITT Population,−1.61 (0.944)
same,"Patient-rated pruritus severity score, 2 Hour Change from Baseline, mean (primary efficacy measure)",[1]; [9],−1.61
same,"Patient-rated pruritus severity score, Baseline Assessment, mean",[1]; [10],2.20
same,"Physician-rated urticaria/erythema score, Baseline Assessment, mean",[1]; [10],1.81
same,"Subject-rated sedation score, Baseline Assessment, mean",[1]; [10],0.39
same,Subjects who returned to the treatment center: No,[1]; [11],120 (94.49)
same,Subjects who returned to the treatment center: Yes,[1]; [11],7 (5.51)
same,"Time spent at the treatment center, Mean (SD)",[1]; [9],1.71 (0.868) Hours
same,"Time spent at the treatment center, Mean (SD)","[1]; ITT Population, listed as injectable cetirizine",1.7 (0.9) Hours
same,"Effectively treated subjects, yes","[1]; Investigator's opinion, count (percentage)",103 (81.10)
same,Time spent at the treatment center shorter than with diphenhydramine injection,[1]; PP Population analysis,27 min
same,Proportion of patients returning to any emergency department or clinic,"[1]; clinical trials, treatment group",6%
same,"Subjects needed rescue drug, yes",[1]; count (percentage),19 (14.96)
same,"Least squares estimated treatment difference, 2 hr change in pruritus severity score","[1]; diphenhydramine-cetirizine, 95% CI=−0.281, 0.396",0.06
same,Effectiveness compared to diphenhydramine injection,"[1]; non-inferiority margin −0.50, 2 hr pruritus change",non-inferior
same,"Pruritus treatment success, yes","[1]; score reduction of at least 1 unit at 2 hr, count (percentage)",110 (86.61)
same,Other clinical signs,"Sprague-Dawley rats [2]; 30 mg/kg/day, as of Day 1, acetic acid, dihydrochloride, 30 mg/kg/day",Increases in activity and changes in posture (hunched back); also recorded: Changes in posture and increased activity were noted
same,Dark focus of the lungs,Sprague-Dawley rats [2]; necropsy,2/4
same,Macroscopic findings at the dosing site,Sprague-Dawley rats [2]; necropsy,no findings at the dosing site were observed
same,"Animals with findings at the dosing site (tail), dark area",Sprague-Dawley rats [3]; [12],2/10
same,Enlargement of bronchial lymph node,Sprague-Dawley rats [3]; [12],2/10
same,Animals affected by macroscopic findings at the dosing site (tail),"Sprague-Dawley rats [3]; Sprague-Dawley, 2 days",8/10
same,Dark focus/area/mottling at the dosing site,"Sprague-Dawley rats [3]; Sprague-Dawley, 2 days",8/10
same,Scab at the dosing site,"Sprague-Dawley rats [3]; Sprague-Dawley, 2 days",1/10
same,Thickening at the dosing site,"Sprague-Dawley rats [3]; Sprague-Dawley, 2 days",6/10
same,Body weight,Sprague-Dawley rats [3],no test item related effects noted
same,Animals found dead,"Sprague-Dawley rats [4]; Sprague-Dawley, rat, in vivo, 50 mg/kg",2/4
same,Mortality dose level as multiple of human clinical dose,"Sprague-Dawley rats [4]; Sprague-Dawley, rat, in vivo, 14 days",58 times of human clinical dose
same,Animals found dead,"Sprague-Dawley rats [4]; rat, in vivo, 100 mg/kg",¾
same,Dose levels associated with mortality,"Sprague-Dawley rats [4]; single IV injection, tail vein",≥ 50 mg/kg
same,Hemolysis,[5],free of hemolysis
same,Most commonly reported adverse reactions in adult overdose cases,"[6]; oral doses of 70 mg to 800 mg, patients 18 to 81 years",somnolence and fatigue
same,Adverse reactions reported in pediatric overdose cases,"[6]; oral doses of 90 mg to 300 mg, patients 18 months to 15 years","somnolence, difficulty walking, agitation/irritability, hard to swallow/articulate clearly, tachycardia, vomiting, mydriasis, and elevated creatinine phosphokinase"
